Measurements published in patent US12173002B2, “PRMT5 inhibitors and methods of use” (SHANGHAI APEIRON THERAPEUTICS COMPANY LIMITED, priority 2022, dated 2024).

What was measured:
[1] = test system: HCT-116 MTAP(−/−) deficient cells; assay: Inhibitory activity on proliferation of HCT-116 MTAP(−/−) deficient cells (Cell-Titer Glo, 8 days); type: cell-based; conditions: Homo sapiens, HCT-116, 192 h, 8 days incubation
Method: Test 1: Compound's inhibitory activity on proliferation of HCT-116 MTAP(−/−) deficient cells. P Materials and Cells: HCT-116 MTAP(−/−) deficient cells obtained from Kyinno Bio (China); RPMI-1640 medium, fetal bovine serum, and penicillin-streptomycin purchased from Thermo Fisher Scientific (America); 384-well plates from PerkinElmer (America); Cell-Titer Glo assay kit from Promega (America).
Cell Culture: HCT116 MTAP(−/−) deficient cells were cultured in RPMI 1640 medium containing 10% fetal bovine serum and 1% penicillin-streptomycin at 37° C., 5% CO2. Only cells in logarithmic growth phase were used for experiments.
(§1) Cell Proliferation Inhibition Assay: The compound's inhibitory activity on HCT-116 MTAP(−/−) deficient cells was assessed using the Cell-Titer Glo assay kit. Adjusting cell concentration, 40 μL was seeded into a 384-well plate and cultured overnight at 37° C., 5% CO2. Each well received 40 nL of the compound, achieving concentrations from 0 to 10,000 nM (starting concentration 10,000 nM, 3-fold dilution, 10 points), with 0.1% DMSO. The cell plate was incubated for 8 days at 37° C., 5% CO2. Cell-Titer Glo reagent (40 μL) was added to measure cell viability.

[2] = test system: HCT-116 MTAP wild-type cells; assay: Inhibitory activity on proliferation of HCT-116 MTAP wild-type cells (Cell-Titer Glo, 8 days); type: cell-based; conditions: Homo sapiens, HCT-116, 192 h, 8 days incubation
Method: Test 2: Compound's inhibitory activity on proliferation of HCT-116 MTAP wild-type cells.
Materials and Cells: HCT-116 MTAP wild-type cells obtained from Kyinno Bio (China); RPMI-1640 medium, fetal bovine serum, and penicillin-streptomycin purchased from Thermo Fisher Scientific (America); 384-well plates from PerkinElmer (America); Cell-Titer Glo assay kit from Promega (America).
Cell Culture: HCT116 MTAP wild-type cells were cultured in RPMI 1640 medium containing 10% fetal bovine serum and 1% penicillin-streptomycin at 37° C., 5% CO2. Only cells in logarithmic growth phase were used for experiments.
as §1, with “MTAP wild-type” for “MTAP(−/−) deficient”

Structure (SMILES)	IC50 [1] [nM]	IC50 [2] [nM]
CN(C(=O)c1cc2c(cc1F)nc(N)c1cncn12)[C@@H]1COc2cc(-c3cnn(C)c3)ccc21 [Example 34, (S)-4-amino-7-fluoro-N-methyl-N-(6-(1-methyl-1H-pyrazol-4-yl)-2,3-dihydrobenzofuran-3-yl)imidazo[1,5-a] quinoxaline-8-carboxamide]	29.6	6570
CN(C(=O)c1cc2c(cc1C#N)nc(N)c1cncn12)[C@@H]1COc2cc(C(F)(F)F)ccc21 [Example 14, (S)-4-amino-7-cyano-N-methyl-N-(6-(trifluoromethyl)-2,3-dihydrobenzofuran-3-yl)imidazo[1,5-a] quinoxaline-8-carboxamide]	14.7	1280
Cc1ncc(-c2ccc3c(c2)OCC3N(C(=O)c2ccc3nc(N)c4cncn4c3c2)C2CC2)cn1 (stereo not drawn) [Example 72, 4-amino-N-cyclopropyl-N-(6-(2-methylpyrimidin-5-yl)-2,3-dihydrobenzofuran-3-yl)imidazo[1,5-a]quinoxaline-8-carboxamide]	117	> 20000
CN(C(=O)c1ccc2nc(N)c3cncn3c2c1)C1CCOCc2cc(C(F)(F)F)ccc21 (stereo not drawn) [Example 44, 4-amino-N-methyl-N-(8-(trifluoromethyl)-1,3,4,5-tetrahydrobenzo[c]oxepin-5-yl) imidazo[1,5-a] quinoxaline-8-carboxamide]	310	> 10000
CN(C(=O)c1cc2c(cc1F)nc(N)c1cncn12)[C@@H]1COc2cc(S(C)(=O)=O)ccc21 [Example 38, (S)-4-amino-7-fluoro-N-methyl-N-(6-(methylsulfonyl)-2,3-dihydrobenzofuran-3-yl)imidazo[1,5-a] quinoxaline-8-carboxamide]	30	4060
CN(C(=O)c1cc2c(cc1F)nc(N)c1cncn12)[C@H]1COc2cc(C(F)(F)F)ccc21 [Example 120, (R)-4-amino-7-fluoro-N-methyl-N-(6-(trifluoromethyl)-2,3-dihydrobenzofuran-3-yl)imidazo[1,5-a]quinoxaline-8-carboxamide]	900	> 10000

Next, values leading:

IC50 [1] [nM]	IC50 [2] [nM]	Structure (SMILES)
931	6260	CN(C(=O)c1ccc2nc(N)c3cncn3c2c1)[C@H]1COc2cc(S(F)(F)(F)(F)F)ccc21 (single isomer, unassigned) [Example 103]
71.4	> 10000	CN(C(=O)c1ccc2nc(N)c3cncn3c2c1)[C@@H]1CSc2cc(S(=O)(=O)C3CC3)ccc21 [Example 133, (S)-4-amino-N-(6-(cyclopropylsulfonyl)-2,3-dihydrobenzo[b]thiophen-3-yl)-N-methylimidazo[1,5-a] quinoxaline-8-carboxamide]
5.6	1300	[2H]c1ncn2c1c(N)nc1ccc(C(=O)N(C)[C@@H]3COc4cc(C(F)(F)F)ccc43)cc12 [Example 79, (S)-4-amino-N-methyl-N-(6-(trifluoromethyl)-2,3-dihydrobenzo-furan-3-yl)imidazo [1,5-a]quinoxaline-8-carboxamide-3-d]
7.1	2070	[2H]c1ncc2c(N)nc3ccc(C(=O)N(C)[C@@H]4COc5cc(C(F)(F)F)ccc54)cc3n12 [Example 78, (S)-4-amino-N-methyl-N-(6-(trifluoromethyl)-2,3-dihydrobenzofuran-3-yl)imidazo[1,5-a]quinoxaline-8-carboxamide-1-d]
148	5990	Nc1nc2ccc(C(=O)N(C3CC3)C3COc4cc(Br)ccc43)cc2n2cncc12 (stereo not drawn) [Example 74, 4-amino-N-(6-bromo-2,3-dihydrobenzofuran-3-yl)-N-cyclopro-pylimidazo[1,5-a] quinoxaline-8-carboxamide]
88.1	> 10000	CN(C(=O)c1cc2c(cc1F)nc(N)c1cncn12)[C@@H]1CCOc2cc(-c3cnn(C(F)(F)F)c3)ccc21 [Example 113, (R)-4-amino-7-fluoro-N-methyl-N-(7-(1-(trifluoromethyl)-1H-pyrazol-4-yl)chroman-4-yl) imidazo[1,5-a] quinoxaline-8-carboxamide]
